Laboratory results reported in PubChem BioAssay AID2743 (NMMLSC, 2010).
Several values for one entry are separate records, joined by “and”; a condition that tells them apart may be missing. Identical values can stand only once. Activity calls are given as the source filed them.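 Rule for the calls: active = fitted half-maximal concentration for change in GFP expression of 33 µM or less; inactive = the rest.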

Test: concentration-dependent AGP1-GFP change, TOR pathway – cell-based, flow cytometry, S. cerevisiae, MLPCN hits, dose response (AID 2743)
Details: S. cerevisiae AGP1-GFP strain, flow cytometry GFP, 3 h; at 33 µM (top of the series)
In the case of `O=C(O)/C=C/C(=O)c1ccc2c(c1)CCc1ccccc1-2`, the GFP fluorescence (kMESF) is reported as 18.9 kMESF (inactive). With `CN(Cc1cnc2nc(N)nc(N)c2n1)c1ccc(C(=O)N[C@@H](CCC(=O)O)C(=O)O)cc1` the GFP fluorescence (kMESF) was 45.5 kMESF (inactive) and 51.9 kMESF (inactive). For `CCc1nc2ccccc2c(=O)n1NC(=O)c1c(O)c2cccc3c2n(c1=O)CCC3`, the GFP fluorescence (kMESF) was 18.3 kMESF (inactive). In the case of `COc1ccccc1-c1nc2s/c(=C\c3cccs3)c(=O)n2n1`, the GFP fluorescence (kMESF) is reported as 27.7 kMESF (inactive). In the case of `c1ccc(-c2cccc(-c3ccccn3)n2)nc1`, the GFP fluorescence (kMESF) is reported as 38.3 kMESF (inactive). For `O=[N+]([O-])c1cc(CN2CCN(c3cccc(C(F)(F)F)c3)CC2)c2cccnc2c1O`, the GFP fluorescence (kMESF) was 32.2 kMESF (inactive). For `Cc1c(Br)c(=O)oc2c(Br)c(O)c(O)cc12`, the GFP fluorescence (kMESF) was 38 kMESF (inactive). In the case of `N=C1/C(=C\c2coc3ccccc3c2=O)C(=O)N=C2SC(c3ccncc3)=NN12`, the GFP fluorescence (kMESF) is reported as 44.7 kMESF (inactive). In the case of `Cc1cccc(Nc2nc(-c3ccccn3)cs2)n1`, the GFP fluorescence (kMESF) is reported as 30.1 kMESF (inactive). For `Cc1ccc(/C=N/Nc2ncc(Cl)cc2Cl)s1`, the GFP fluorescence (kMESF) was 35.6 kMESF (inactive). In the case of `CC(C)(C)c1cc(C(c2cccnc2)N2CCN(CCO)CC2)cc(C(C)(C)C)c1O` (stereo not given), the GFP fluorescence (kMESF) is reported as 42.2 kMESF (inactive). With `CCC(C)/C(C)=N/NC(=O)c1ccc(COc2ccc(Cl)c(C)c2)cc1` (stereo not given) the GFP fluorescence (kMESF) was 41.2 kMESF (inactive). With `O=C1N(c2ccccc2C(F)(F)F)O[C@]1(c1ccccc1)C1CCCCC1` the GFP fluorescence (kMESF) was 34.3 kMESF (inactive). In the case of `Cc1cccc(/C=C/C(=O)c2ccc([N+](=O)[O-])o2)c1`, the GFP fluorescence (kMESF) is reported as 19.2 kMESF (inactive). For `COc1ccc(-c2cc3nc4n(c(=O)c3s2)CCC4)cc1`, the GFP fluorescence (kMESF) was 23.3 kMESF (inactive). With `Cc1cccnc1Nc1nc(-c2ccccn2)cs1` the GFP fluorescence (kMESF) was 31 kMESF (inactive). With `Cc1ccc(N=Nc2ccc(O)c3ncccc23)cc1` the GFP fluorescence (kMESF) was 35.1 kMESF (inactive). With `C[C@@H]1C[C@@H]([C@H](O)CC2CC(=O)NC(=O)C2)C(=O)[C@@H](C)C1` the GFP fluorescence (kMESF) was 26.8 kMESF (inactive). With `COc1ccc(C(c2c(C)[nH]n(C(N)=S)c2=O)C(C#N)C#N)cc1` (stereo not given) the GFP fluorescence (kMESF) was 44.2 kMESF (inactive). For `O=c1c2cc(Cl)ccc2nc(-c2ccc([N+](=O)[O-])cc2)n1O`, the GFP fluorescence (kMESF) was 23 kMESF (inactive). For `CN(c1ccccc1)c1ccc(/C=c2\s/c(=C(/C#N)C(=O)C(C)(C)C)n(Cc3ccco3)c2=O)cc1`, the GFP fluorescence (kMESF) was 38 kMESF (inactive). With `CC(C)(C)C1C/C(=C/c2ccccn2)C(=O)/C(=C/c2ccccn2)C1` (stereo not given) the GFP fluorescence (kMESF) was 32.6 kMESF (inactive). With `Cc1sc(/C=C2\C(=O)ON=C2c2ccccc2)cc1Br` the GFP fluorescence (kMESF) was 34 kMESF (inactive). For `Cc1c(Cc2ccccc2)c(NCCN(C)C)n2c(nc3ccccc32)c1C#N`, the GFP fluorescence (kMESF) was 45.4 kMESF (inactive). With `O=C(C#Cc1ccccc1)c1ccco1` the GFP fluorescence (kMESF) was 29.7 kMESF (inactive). For `CC(C)[C@]1(c2ccc(Cl)cc2)ON(c2ccccc2C(F)(F)F)C1=O`, the GFP fluorescence (kMESF) was 39.3 kMESF (inactive). With `O=C(NCc1ccc2c(c1)OCO2)c1nc(S(=O)(=O)Cc2ccccc2)ncc1Cl` the GFP fluorescence (kMESF) was 40.9 kMESF (inactive). In the case of `Cc1[nH]n(-c2ncc(-c3ccccc3)s2)c(=O)c1C(c1ccc(Cl)cc1)C(C#N)C#N` (stereo not given), the GFP fluorescence (kMESF) is reported as 40.6 kMESF (inactive). In the case of `O=C1CCN(S(=O)(=O)c2ccccc2)CCN1CCOCc1ccc(F)cc1`, the GFP fluorescence (kMESF) is reported as 33.5 kMESF (inactive). For `COc1ccc(/C=C/C(=O)c2cc(Br)ccc(=O)c2O)cc1`, the GFP fluorescence (kMESF) was -39.3 kMESF (inactive). With `CCCCCCCCC/C(=N\O)c1ccccn1` the GFP fluorescence (kMESF) was 34.8 kMESF (inactive). In the case of `Cc1ccc(S(=O)(=O)N2CCCC2C(=O)NCc2ccncc2)cc1` (stereo not given), the GFP fluorescence (kMESF) is reported as 32.1 kMESF (inactive). In the case of `Cc1ccccc1C(=O)NNC(=S)NC(=O)c1ccc(Cl)cc1Cl`, the GFP fluorescence (kMESF) is reported as 40.9 kMESF (inactive). With `COc1ccc(OC)c(S(=O)(=O)ON2C(=O)c3ccccc3C2=O)c1` the GFP fluorescence (kMESF) was 39.4 kMESF (inactive). With `Cc1ccc(N2C(=O)CC(Sc3ncn[nH]3)C2=O)cc1C` (stereo not given) the GFP fluorescence (kMESF) was 49.6 kMESF (inactive). In the case of `COc1ccc([C@@]2(C(C)C)ON(c3ccccc3C(F)(F)F)C2=O)cc1`, the GFP fluorescence (kMESF) is reported as 39.4 kMESF (inactive). In the case of `Cc1cc(C)c(C)c(S(=O)(=O)ON2C(=O)c3ccccc3C2=O)c1C`, the GFP fluorescence (kMESF) is reported as 40 kMESF (inactive). In the case of `CCCCCCCCn1sccc1=O`, the GFP fluorescence (kMESF) is reported as 31.5 kMESF (inactive). For `O=C(NC(=S)NNC(=O)c1ccc(Cl)cc1Cl)c1cccnc1`, the GFP fluorescence (kMESF) was 26.1 kMESF (inactive). For `COc1ccc(NC(=O)/C(Cl)=C(/Cl)S(=O)Cc2ccccc2)cn1` (stereo not given), the GFP fluorescence (kMESF) was 38.3 kMESF (inactive). In the case of `CC(C)CC(=O)NC(=S)Nc1nc(-c2ccccc2)cs1`, the GFP fluorescence (kMESF) is reported as 38.8 kMESF (inactive). For `CCCN1CCc2c(sc(NC(=S)NC(=O)c3ccccc3)c2C#N)C1`, the GFP fluorescence (kMESF) was 42 kMESF (inactive). With `COc1cccc(/C=C2\C(=O)N(c3cccc(C)c3)C(=O)c3ccccc32)c1` the GFP fluorescence (kMESF) was 45.3 kMESF (inactive). For `O=C1N(c2ccccc2C(F)(F)F)O[C@@]1(c1ccccc1)C1CCCCC1`, the GFP fluorescence (kMESF) was 36.2 kMESF (inactive). In the case of `COc1ccccc1N=Nc1ccc(O)c2ncccc12`, the GFP fluorescence (kMESF) is reported as 49.5 kMESF (inactive).
